From US20260327263A1, “Anti-Bacterial Peptides” (priority 2023, published 2026)
Converted amounts (≈) assume the structure as drawn. “And” between values parts separate entries of the source, which are not always exact repeats. Identical values can stand only once. Like-named read-outs stand apart in the source and are kept apart here. Where a SMILES comes first, the peptide text is derived from it. Where no end group is shown, it is not given here. [ ]: non-standard residue; d: D form. 2Nal = N[C@@H](Cc1ccc2ccccc2c1)C(=O)O; d2Nal = N[C@H](Cc1ccc2ccccc2c1)C(=O)O; Aib = CC(C)(N)C(=O)O

Tests used:
[1] = system: Pseudomonas aeruginosa (PA); assay: Broth microdilution anti-bacterial assay (CLSI), Pseudomonas aeruginosa; assay type: cell-based, Pseudomonas aeruginosa (ATCC 14213)
Protocol: (§1) To evaluate their anti-bacterial potency, broth microdilution method as per the CLSI guidelines 1 was used. […] The anti-bacterial potency of the tested agents is quantified using minimum inhibitory concentration (MIC) and minimum bactericidal concentration (MBC). […] To obtain the MBC data, 1X, 2X and 4× MIC of the peptide variants were plated to obtain the number of viable colonies compared to the original inoculum.
(§2) Pseudomonas aeruginosa (ATCC 14213, PA), and methicillin resistant Staphylococcus aureus (BAA1717-USA 300, SA) were obtained from The American Type Culture Collection (ATCC).
(§3) Examination of the potency of modified short peptides against PA and SA strains was performed by using the broth microdilution protocol from the Clinical and Laboratory Standards Institute (CLSI) guidelines (CLSI 2012) as described. Briefly, five freshly plated bacteria colonies were grown in cation adjusted MH2 broth (BD Biosciences) in a shaker incubator at 37° C., 220 RPM. Cells were grown to an optical density (OD600) of ~0.2 measured using a Microplate Spectrophotometer (Molecular Devices Spectra Max Plus). 100 μL of microbial culture containing ~5×10^5 CFU/mL of bacteria in the respective broths were introduced into each well containing 100 μL of peptides and incubated overnight at 37° C. Next, to check the bactericidal effects, 100 μL from each well was transferred and spread on sterile MH2 agar plates. The plates were incubated overnight at 37° C. and the number of colonies forming units (CFU) were calculated the following day. Readings of bacteria grown in media without any treatments were normalized to 100% as media control. For the mixed infection study, three freshly plated bacteria colonies each from PA, SA and ST plates were grown together in cation adjusted MH2 broth and proceeded as described above.

[2] = system: Staphylococcus aureus (SA); assay: Broth microdilution anti-bacterial assay (CLSI), Staphylococcus aureus; assay type: cell-based
Protocol: as §1, §2, §3

[3] = system: mixed bacterial infection (PA, SA and ST); assay: Broth microdilution, mixed bacterial infection; assay type: cell-based
Protocol: Chronic wounds mostly present mixed infections where numerous pathogens colonize together.
as §3

[4] = system: Pseudomonas aeruginosa PA BAA-2110; assay: Broth microdilution, PA BAA-2110 (lung infection in cystic fibrosis); assay type: cell-based, Pseudomonas aeruginosa (BAA-2110); settings: Pseudomonas aeruginosa, BAA2110
Protocol: (§4) Bacteria strains involved in lung infection in cystic fibrosis patients (PA-BAA 2110) and ear-eye infections (PA-CRM 9027) are treated with exemplary variant peptides, such as E1AM2 and Q19L.
as §3

[5] = system: Pseudomonas aeruginosa PA CRM-9027; assay: Broth microdilution, PA CRM-9027 (ear-eye infections); assay type: cell-based, Pseudomonas aeruginosa (CRM-9027); settings: Pseudomonas aeruginosa, PACRM9027
Protocol: as §4, §3

[6] = system: Pseudomonas aeruginosa (PA); assay: Antimicrobial resistance evolution assay, PA; assay type: cell-based; settings: for development of antimicrobial resistance, PA: serial passaging, 28 days, resistance = >4-fold MIC change
Source text: The development of antimicrobial resistance is defined by greater than a 4-fold change to their initial minimum inhibitory concentration (MIC) at day 1. Exemplary bacteria strains Pseudomonas aeruginosa (PA) and Staphylococcus aureus (SA) are subjected to continuous daily serial passaging over several days, with treatment of exemplary variant peptides E1AM2 (SEQ ID NO: 2) and Q19L (SEQ ID NO: […]) at subinhibitory concentrations. […] The treatments were discontinued when the MIC increased by more than four-fold from the initial MIC or when MIC reached >100 μM.
Briefly, sequential passaging of PA, and SA cells was done with sub-inhibitory concentrations of antibiotics or E1AM2 up to 4 weeks. The cells grown in those concentrations of antibiotics or peptides were diluted to A600 nm (OD600) of ~0.2 and serially passaged daily with the same concentrations at 37° C. with agitation at 24 h intervals.

[7] = system: Pseudomonas aeruginosa (PA); assay: Combination of peptide with antibiotics against PA; assay type: cell-based
Source text: In view of the results above, the peptide variants as described herein show synergistic anti-bacterial effects when used in combination with antibiotics.
In some examples, the methods described herein further comprises administering an antibiotic agent to the subject.

[8] = PA, overnight, 37° C., ≥99% inhibition
[9] = SA, overnight, 37° C., ≥99% inhibition
[10] = with gentamicin and piperacillin

Row | Compound | MIC [1, 8] | MBC ([1]; PA, ≥99% killing) | MIC [2, 9] | MBC ([2]; SA, ≥99% killing) | MBC ([3]; mixed infection) | development of antimicrobial resistance, PA [6] | further results
1 | KKLLKKWVKLSKKALKLAQSL-NH2 [E1AM2-NH2] | 3.125 µM | 6.25 µM | 6.25 µM | 12.5 µM | 6.25 µM | – | MIC ([3]; mixed infection): 6.25 µM
2 | CN[C@@H]1[C@@H](O)C(O[C@@H]2[C@@H](O)[C@H](O[C@H]3O[C@H]([C@@H](C)NC)CC[C@H]3N)[C@@H](N)C[C@H]2N)OC[C@]1(C)O (stereo partly drawn) [Gentamicin, (3R,4R,5R)-2-{[(1S,2S,3R,4S,6R)-4,6-diamino-3-{[(2R,3R,6S)-3-amino-6-[(1R)-1-(methylamino)ethyl]oxan-2-yl]oxy}-2-hydroxycyclohexyl]oxy}-5-methyl-4-(methylamino) oxane-3,5-diol] | – | – | – | – | 6.25 µM and 6.26 µM | developed resistance | MBC ([1]; Pseudomonas aeruginosa): 6.25 µM (≈ 2.99 µg/mL); MIC ([1]; Pseudomonas aeruginosa): 3.12 µM (≈ 1.49 µg/mL); MBC ([2]; Staphylococcus aureus): 3.25 µM (≈ 1.55 µg/mL); MIC ([2]; Staphylococcus aureus): 1.56 µM (≈ 0.745 µg/mL); MIC [3]: 3.12 µM (≈ 1.49 µg/mL); MBC [4]: 25 µM (≈ 11.9 µg/mL); MIC [4]: 25 µM (≈ 11.9 µg/mL); MBC [5]: 12.5 µM (≈ 5.97 µg/mL); MIC [5]: 6.25 µM (≈ 2.99 µg/mL); AMR prevention / resistance induction ([6]; Table 15: in PA and SA, bacteria not named): induced resistance development in bacteria
3 | CCN1CCN(C(=O)N[C@@H](C(=O)N[C@@H]2C(=O)N3[C@@H]2SC(C)(C)[C@@H]3C(=O)O)c2ccccc2)C(=O)C1=O [Piperacillin, (2S,5R,6R)-6-{[(2R)-2-[(4-ethyl-2,3-dioxo-piperazine-1-carbonyl)amino]-2-phenyl-acetyl]amino}-3,3-dimethyl-7-oxo-4-thia-1-azabicyclo[3.2.0]heptane-2-carboxylic acid] | – | – | – | – | 25 µM (≈ 12.9 µg/mL) | developed resistance | MBC ([1]; Pseudomonas aeruginosa): 50 µM (≈ 25.9 µg/mL); MIC ([1]; Pseudomonas aeruginosa): 25 µM (≈ 12.9 µg/mL); MBC ([2]; Staphylococcus aureus): 12.5 µM (≈ 6.47 µg/mL); MIC ([2]; Staphylococcus aureus): 6.25 µM (≈ 3.23 µg/mL); MIC [3]: 25 µM (≈ 12.9 µg/mL); MBC [4]: 25 µM (≈ 12.9 µg/mL); MIC [4]: 12.5 µM (≈ 6.47 µg/mL); MBC [5]: 6.25 µM (≈ 3.23 µg/mL); MIC [5]: 6.25 µM (≈ 3.23 µg/mL)
4 | CC(C)C[C@H](NC(=O)[C@H](C)NC(=O)[C@H](CC(C)C)NC(=O)[C@H](CCCCN)NC(=O)[C@H](CC(C)C)NC(=O)[C@H](C)NC(=O)[C@H](CCCCN)NC(=O)[C@H](CCCCN)NC(=O)[C@H](CO)NC(=O)[C@H](CC(C)C)NC(=O)[C@H](CCCCN)NC(=O)[C@H](CC(C)C)NC(=O)[C@H](Cc1ccc2ccccc2c1)NC(=O)[C@H](CCCCN)NC(=O)[C@H](CCCCN)NC(=O)[C@H](CC(C)C)NC(=O)[C@H](CC(C)C)NC(=O)[C@H](CCCCN)NC(=O)[C@@H](N)CCCCN)C(N)=O [E1AM2 W72Nal V8L Q19L C-2-NH2] (H-KKLLKK[2Nal]LKLSKKALKLAL-NH2) | 1.56 µM (≈ 3.53 µg/mL) | 1.56 µM (≈ 3.53 µg/mL) | 1.56 µM (≈ 3.53 µg/mL) | 1.56 µM (≈ 3.53 µg/mL) | – | – | MBC in combination with colistin ([7]; with colistin): reduced minimum bactericidal concentration (MBC); MIC in combination with colistin ([7]; with colistin): reduced minimum inhibitory concentration (MIC)
5 | CC(C)C[C@@H](NC(=O)[C@@H](C)NC(=O)[C@@H](CC(C)C)NC(=O)[C@@H](CCCCN)NC(=O)[C@@H](CC(C)C)NC(=O)[C@@H](C)NC(=O)[C@@H](CCCCN)NC(=O)[C@@H](CCCCN)NC(=O)[C@@H](CO)NC(=O)[C@@H](CC(C)C)NC(=O)[C@@H](CCCCN)NC(=O)[C@@H](CC(C)C)NC(=O)[C@@H](Cc1ccc2ccccc2c1)NC(=O)[C@@H](CCCCN)NC(=O)[C@@H](CCCCN)NC(=O)[C@@H](CC(C)C)NC(=O)[C@@H](CC(C)C)NC(=O)[C@@H](CCCCN)NC(=O)[C@H](N)CCCCN)C(N)=O [E1AM2 D-W72Nal V8L Q19L C-2-NH2] (H-[dK][dK][dL][dL][dK][dK][d2Nal][dL][dK][dL][dS][dK][dK][dA][dL][dK][dL][dA][dL]-NH2) | 1.56 µM (≈ 3.53 µg/mL) | 1.56 µM (≈ 3.53 µg/mL) | 1.56 µM (≈ 3.53 µg/mL) | 1.56 µM (≈ 3.53 µg/mL) | – | – | MBC in combination with gentamicin and piperacillin [7, 10]: reduced minimum bactericidal concentration (MBC); MIC in combination with gentamicin and piperacillin [7, 10]: reduced minimum inhibitory concentration (MIC)
6 | O=C(O)c1cn(C2CC2)c2cc(N3CCNCC3)c(F)cc2c1=O [Ciprofloxacin, 1-cyclopropyl-6-fluoro-4-oxo-7-(piperazin-1-yl)-quinoline-3-carboxylic acid] | – | – | – | – | 25 µM (≈ 8.28 µg/mL) | developed resistance | –
7 | CO/N=C(\C(=O)N[C@@H]1C(=O)N2C(C(=O)[O-])=C(C[N+]3(C)CCCC3)CS[C@H]12)c1csc(N)n1 [Cefepime] | – | – | – | – | 12.5 µM (≈ 6.01 µg/mL) | developed resistance | MBC ([1]; Pseudomonas aeruginosa): 25 µM (≈ 12 µg/mL); MIC ([1]; Pseudomonas aeruginosa): 12.5 µM (≈ 6.01 µg/mL); MBC ([2]; Staphylococcus aureus): 25 µM (≈ 12 µg/mL); MIC ([2]; Staphylococcus aureus): 12.5 µM (≈ 6.01 µg/mL); MIC [3]: 12.5 µM (≈ 6.01 µg/mL); MBC [4]: 25 µM (≈ 12 µg/mL); MIC [4]: 12.5 µM (≈ 6.01 µg/mL); MBC [5]: 1.56 µM (≈ 0.75 µg/mL); MIC [5]: 1.56 µM (≈ 0.75 µg/mL)
8 | KKLLKKWVKLLKKALKLAQSL-NH2 [S11L] | 12.5 µM | 12.5 µM | 6.25 µM | 6.25 µM | – | – | –
9 | KKLLKKWLKLSKKALKLA-NH2 [V8LQ19L C-3] | >6.25 µM | >6.25 µM | >6.25 µM | >8.26 µM | – | – | anti-bacterial activity (in words) ([1]; PA and SA): strong potency
10 | KKLLKKWVKLSKKALKLKQSL-NH2 [A18K] | 12.5 µM | 25 µM | 12.5 µM | 12.5 µM | – | – | –
11 | KKLLKKWVKLKKKALKLAQSL-NH2 [S11K] | 12.5 µM | 12.5 µM | 12.5 µM | 12.5 µM | – | – | –
12 | CC(C)C[C@H](NC(=O)[C@H](CO)NC(=O)[C@H](CC(C)C)NC(=O)[C@H](C)NC(=O)[C@H](CC(C)C)NC(=O)[C@H](CCCCN)NC(=O)[C@H](CC(C)C)NC(=O)C(C)(C)NC(=O)[C@H](CCCCN)NC(=O)[C@H](CCCCN)NC(=O)[C@H](CO)NC(=O)[C@H](CC(C)C)NC(=O)[C@H](CCCCN)NC(=O)[C@H](CC(C)C)NC(=O)[C@H](Cc1c[nH]c2ccccc12)NC(=O)[C@H](CCCCN)NC(=O)[C@H](CCCCN)NC(=O)[C@H](CC(C)C)NC(=O)[C@H](CC(C)C)NC(=O)[C@H](CCCCN)NC(=O)[C@@H](N)CCCCN)C(N)=O [V8LQ19LA14Aib] (H-KKLLKKWLKLSKK[Aib]LKLALSL-NH2) | 3.126 µM (≈ 7.7 µg/mL) | 6.25 µM (≈ 15.4 µg/mL) | 3.125 µM (≈ 7.7 µg/mL) | 6.25 µM (≈ 15.4 µg/mL) | – | – | –
13 | KKLLKKWVKLSKKLLKLAQSL-NH2 [A14L] | 12.5 µM | 12.5 µM | 6.25 µM | 6.25 µM | – | – | –
